In ChEMBL document CHEMBL1201862, “PubChem BioAssay data set” (2004):
Values joined by “and” are separate entries in the source; they are usually repeats but may differ in a detail not shown here. Identical values can stand only once.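 Values below derive from 48-hour exposures of cells grown in 96-well plates, with endpoints linearly interpolated between the two concentrations bracketing the appropriate inhibition level. Abbreviation: GI50, concentration required for 50% inhibition of growth.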 Active and inactive are the calls of the source. Rule as the data show it: active = GI50 up to about 1.1 µM and inactive = higher.

Legend:
Test in all cases: NCI-60 cell line screen, 48 h
[1] = tested on: COLO 205
[2] = tested on: UACC-257
[3] = tested on: OVCAR-8
[4] = tested on: SF-539
[5] = tested on: SF-295
[6] = tested on: HCT-15
[7] = tested on: MOLT-4
[8] = tested on: NCI-H226
[9] = tested on: SW-620
[10] = tested on: Malme-3M
[11] = tested on: OVCAR-5
[12] = tested on: IGROV-1
[13] = tested on: NCI-H460
[14] = tested on: NCI-H23
[15] = tested on: HCC 2998

SMILES | GI50 [1] | GI50 [2] | GI50 [3] | GI50 [4] | GI50 [5] | GI50 [6] | GI50 [7] | GI50 [8] | GI50 [9] | GI50 [10] | GI50 [11] | GI50 [12] | GI50 [13] | GI50 [14] | GI50 [15]
CN(C)CCNc1ccc2ncn3c4ccccc4c(=O)c1c23 | 0.94 µM (active) | 2.97 µM (inactive) | 1.15 µM (inactive) | 3.62 µM (inactive) | 2.47 µM (inactive) | 2.85 µM | 0.615 µM (active) | 1.91 µM (inactive) | 0.826 µM (active) | 2.34 µM (inactive) | 1.66 µM (inactive) | 2.42 µM (inactive) | 0.805 µM (active) | 3.32 µM (inactive) | –
NCCCNCCSSC/C=C\CSSCCNCCCN | 29.5 µM (inactive) and 45.6 µM (inactive) | 30.9 µM (inactive) and 17.1 µM (inactive) | > 100 µM (inactive) | 72.4 µM (inactive) and 89.3 µM (inactive) | – | > 100 µM and 63.7 µM | 20.4 µM (inactive) and 12.3 µM (inactive) | – | 44.4 µM (inactive) and 31.1 µM (inactive) | 78 µM (inactive) | > 100 µM (inactive) | > 100 µM (inactive) | > 100 µM (inactive) | > 100 µM (inactive) | 90.6 µM (inactive)
C[N+]1=C(c2cccnc2/C=N/O)OCC1(C)C | > 100 µM (inactive) | > 100 µM (inactive) | > 100 µM (inactive) | > 100 µM (inactive) | > 100 µM (inactive) | > 100 µM | > 100 µM (inactive) | < 0.01 µM (active) | > 100 µM (inactive) | > 100 µM (inactive) | > 100 µM (inactive) | > 100 µM (inactive) | > 100 µM (inactive) | > 100 µM (inactive) | > 100 µM (inactive)
COC(=O)C1C(=O)N(CCc2c[nH]c3ccccc23)C[C@@H]2CCC(=O)C[C@H]12 (stereo partly drawn) | > 100 µM (inactive) | > 100 µM (inactive) | > 100 µM (inactive) | > 100 µM (inactive) | > 100 µM (inactive) | > 100 µM | > 100 µM (inactive) | – | > 100 µM (inactive) | > 100 µM (inactive) | – | > 100 µM (inactive) | > 100 µM (inactive) | > 100 µM (inactive) | > 100 µM (inactive)
COC(=O)c1c/c(=N\NC(=O)CC(=O)Nc2ccccc2OC)c2ccccc2o1 | > 100 µM (inactive) | – | – | > 100 µM (inactive) | – | > 100 µM | 75.7 µM (inactive) | > 100 µM (inactive) | > 100 µM (inactive) | – | > 100 µM (inactive) | > 100 µM (inactive) | 76 µM (inactive) | > 100 µM (inactive) | 93.1 µM (inactive)
O=C(CN(c1ccccc1)c1ccccc1)N1c2ccccc2C2C=CC=CC21 (stereo not drawn) | 11 µM (inactive) | 18.3 µM (inactive) | 20.7 µM (inactive) | 18.8 µM (inactive) | 24.5 µM (inactive) | 16.7 µM | 8.05 µM (inactive) | 18.5 µM (inactive) | 23.7 µM (inactive) | 21.6 µM (inactive) | 24 µM (inactive) | 21.3 µM (inactive) | 19.3 µM (inactive) | 23.2 µM (inactive) | –
CC1(C)CC(=O)C(=[N+]=[N-])C(=O)C1 | > 100 µM (inactive) | > 100 µM (inactive) | – | > 100 µM (inactive) | > 100 µM (inactive) | > 100 µM | – | > 100 µM (inactive) | > 100 µM (inactive) | > 100 µM (inactive) | > 100 µM (inactive) | > 100 µM (inactive) | – | > 100 µM (inactive) | > 100 µM (inactive)
O=C(Nc1ccc(Cl)c(Cl)c1)C1C(=O)N(c2ccc(Cl)c(Cl)c2)C(=O)/C1=N\O (stereo not drawn) | 19.3 µM (inactive) | 51.2 µM (inactive) | > 100 µM (inactive) | > 100 µM (inactive) | 73.5 µM (inactive) | > 100 µM | > 100 µM (inactive) | 50.5 µM (inactive) | 49 µM (inactive) | > 100 µM (inactive) | > 100 µM (inactive) | > 100 µM (inactive) | – | > 100 µM (inactive) | > 100 µM (inactive)
COc1ccc(/C=c2/sc3n(c2=O)NC2(CCCCC2)NN=3)cc1 | > 100 µM (inactive) | – | > 100 µM (inactive) | > 100 µM (inactive) | > 100 µM (inactive) | – | > 100 µM (inactive) | > 100 µM (inactive) | > 100 µM (inactive) | > 100 µM (inactive) | > 100 µM (inactive) | > 100 µM (inactive) | > 100 µM (inactive) | > 100 µM (inactive) | > 100 µM (inactive)
C/C(=N\Nc1ccc([N+](=O)[O-])cc1)C(=O)N(C)Nc1ccccc1 | 58.3 µM (inactive) | 31.6 µM (inactive) | 51.4 µM (inactive) | 76.4 µM (inactive) | 34.5 µM (inactive) | 48.1 µM | 41 µM (inactive) | 38.9 µM (inactive) | > 100 µM (inactive) | – | – | 58.9 µM (inactive) | 47.1 µM (inactive) | 58.5 µM (inactive) | 33.8 µM (inactive)
N=C(N)n1ncc(Cl)c(Cl)c1=O | 1.88 µM (inactive) | 2.13 µM (inactive) | 2.15 µM (inactive) | 2.34 µM (inactive) | 10.8 µM (inactive) | 1.87 µM | 2.02 µM (inactive) | 5.25 µM (inactive) | 1.88 µM (inactive) | 2.21 µM (inactive) | 15.2 µM (inactive) | 11.1 µM (inactive) | 5.97 µM (inactive) | 2.45 µM (inactive) | –
N#CC(C(=O)CCC(=O)C(C#N)c1ccccc1)c1ccccc1 (stereo not drawn) | > 100 µM (inactive) | > 100 µM (inactive) | > 100 µM (inactive) | > 100 µM (inactive) | > 100 µM (inactive) | > 100 µM | > 100 µM (inactive) | > 100 µM (inactive) | > 100 µM (inactive) | > 100 µM (inactive) | > 100 µM (inactive) | > 100 µM (inactive) | > 100 µM (inactive) | > 100 µM (inactive) | > 100 µM (inactive)
COC1(OC)CCCCC2c3cccc(OC(C)=O)c3C21OC(C)=O (stereo not drawn) | > 100 µM (inactive) | > 100 µM (inactive) | > 100 µM (inactive) | > 100 µM (inactive) | > 100 µM (inactive) | 73.8 µM | 64.3 µM (inactive) | > 100 µM (inactive) | > 100 µM (inactive) | > 100 µM (inactive) | > 100 µM (inactive) | > 100 µM (inactive) | > 10 µM (inactive) | > 100 µM (inactive) | > 100 µM (inactive)
NC(=S)N/N=C1\CCCC\C1=C/c1ccccc1 | 65.6 µM (inactive) | 17.9 µM (inactive) | > 100 µM (inactive) | 93.8 µM (inactive) | > 100 µM (inactive) | 67.1 µM | 19.6 µM (inactive) | – | 72.6 µM (inactive) | 60.8 µM (inactive) | 12.8 µM (inactive) | 25.2 µM (inactive) | > 100 µM (inactive) | > 100 µM (inactive) | > 100 µM (inactive)
O=C(CCC(=O)C1Cc2ccccc2C1=O)Nc1cccc(C(F)(F)F)c1 (stereo not drawn) | > 100 µM (inactive) | > 100 µM (inactive) | > 100 µM (inactive) | > 100 µM (inactive) | > 100 µM (inactive) | > 100 µM | > 100 µM (inactive) | > 100 µM (inactive) | > 100 µM (inactive) | > 100 µM (inactive) | > 100 µM (inactive) | > 100 µM (inactive) | > 100 µM (inactive) | > 100 µM (inactive) | > 100 µM (inactive)
COC(=O)C(Cc1nc2ccccc2nc1O)C(NO)C(=O)Nc1c(Cl)cc([N+](=O)[O-])cc1Cl (stereo not drawn) | 46.2 µM (inactive) | 27.7 µM (inactive) | 30.4 µM (inactive) | 22.8 µM (inactive) | 27.7 µM (inactive) | 49.2 µM | 27.9 µM (inactive) | – | – | 47.5 µM (inactive) | – | 40.8 µM (inactive) | 20.7 µM (inactive) | 22.4 µM (inactive) | 59.6 µM (inactive)
CC(=O)NC1=C(NCCC(C)C)C(=O)c2ccccc2C1=O | > 50 µM (inactive) | > 50 µM (inactive) | > 50 µM (inactive) | > 50 µM (inactive) | > 50 µM (inactive) | > 50 µM | > 50 µM (inactive) | > 50 µM (inactive) | > 50 µM (inactive) | 45.9 µM (inactive) | – | > 50 µM (inactive) | > 50 µM (inactive) | > 50 µM (inactive) | > 50 µM (inactive)
CCOC(=O)C1N(S(=O)(=O)c2ccc(C)cc2)CCC12c1ccccc1N(C(C)=O)C2C(/C=C/C(=O)OC)=C/C(=O)OC (stereo not drawn) | > 100 µM (inactive) | > 100 µM (inactive) | > 100 µM (inactive) | > 100 µM (inactive) | > 100 µM (inactive) | – | – | > 100 µM (inactive) | > 100 µM (inactive) | > 100 µM (inactive) | > 100 µM (inactive) | > 100 µM (inactive) | > 100 µM (inactive) | > 100 µM (inactive) | > 100 µM (inactive)
CC1CC2C3CC(F)C4=CC(=O)C=CC4(C)C3(F)C(O)CC2(C)C1(O)C(=O)CO (stereo not drawn) | > 100 µM (inactive) | > 100 µM (inactive) | – | > 100 µM (inactive) | > 100 µM (inactive) | > 100 µM | > 100 µM (inactive) | > 100 µM (inactive) | > 100 µM (inactive) | > 100 µM (inactive) | > 10 µM (inactive) | > 100 µM (inactive) | > 100 µM (inactive) | > 100 µM (inactive) | > 100 µM (inactive)
O=S(=O)(O)SC/C=C\CSS(=O)(=O)O | > 100 µM (inactive) | > 100 µM (inactive) | > 100 µM (inactive) | 66.2 µM (inactive) | 31.3 µM (inactive) | > 100 µM | > 100 µM (inactive) | 49.7 µM (inactive) | > 100 µM (inactive) | > 100 µM (inactive) | > 100 µM (inactive) | > 100 µM (inactive) | 42.9 µM (inactive) | > 100 µM (inactive) | > 100 µM (inactive)
